Reference: a melting point compilation (Tetko et al.; mined from patent text by program, amines drawn as free bases though some values may be those of a salt)

| SMILES | melting point |
| --- | --- |
| CC(C)c1nc2cc(NC(=O)c3c(C(=O)O)cnn3C)ccn2n1 | > 250 °C |
| NC(=O)Nc1cccc2c1C(=O)c1c-2n[nH]c1-c1ccsc1 | > 280 °C |
| N=C(N)c1ccc(C(=O)NCCCCC(=O)NC(CC(=O)O)C(=O)NC(Cc2ccccc2)C(=O)O)cc1 (centres undefined) | 169 to 171 °C |
| c1ccc(OCC2CCNCC2)cc1 | 42 to 43 °C |
| Cc1ccc(S(=O)(=O)OCC2COC(C(F)(F)F)(C(F)(F)F)O2)cc1 (centres undefined) | 57 to 58.5 °C |
| COc1cc2c(Nc3ccc(Sc4nccn4C)c(Cl)c3)c(C#N)cnc2cc1NCCCN(C)C | 198 to 200 °C |
| CCOC(=O)C(Nc1ccc(C(=O)OC)cc1)C(=O)OCC | 66 to 69 °C |
| CC(C)(O)COCc1onc(-c2ccccc2)c1-c1ccc(S(N)(=O)=O)cc1 | 160 to 162 °C |
| COc1ccc2c(c1)c(CC(=O)O)c(C)n2C(=O)c1ccc(Cl)c(Cl)c1 | 95 to 97 °C |
| CCCCc1nc2cccc(C(=O)OC)c2n1Cc1ccc(-c2ccccc2C#N)cc1 | 123 to 124 °C |
| O=C(c1ccc(Cl)cc1)c1cc(-c2ccccc2)c(N2CCOCC2)s1 | 187 to 188 °C |
| CCOC(=O)CCc1cc(C(=O)CCC(=O)O)ccc1OC | 128 to 129 °C |
| CNC(=O)c1cccc(Nc2ncnc3[nH]cc(C(=O)c4cccc5ccccc45)c23)c1 | > 300 °C |
| CC(C=CCC(C)(O)CO)C1CCC2C(O)CCCC12C (centres undefined) | 87 to 88 °C |
| CCn1c(Oc2cccc(NS(C)(=O)=O)c2)nnc1[C@@H](C)NS(=O)(=O)c1ccc(Cl)c(Cl)c1 | 117 to 118 °C |
| Cc1ccc(COc2ncc(F)c(NCO)n2)cc1 | 97 to 98 °C |
| Cc1c(O)cccc1NC(=O)CC12CC3CC(CC(C3)C1)C2 | 211 °C |
| Cn1cc(S(=O)(=O)Cl)c(=O)c2ccc(F)cc21 | 194 to 196 °C |
| CC(C)NCC(O)COc1ccc2c(c1)C(=O)OC2 (centres undefined) | 95 to 97 °C |
| CC(C=O)=Cc1cc([N+](=O)[O-])ccc1Cl | 99 to 102 °C |
| CSc1cnc2cc(C)sc2c1O | 222 to 225 °C |
| CCOC(=O)N1CCN=C1CC(c1ccccc1)c1ccccc1 | 78 to 80 °C |
| N=c1c2ccccc2ccc2ccccc12 | 60 to 62 °C |
| CCOC(=O)c1c[nH]c2c(F)c(C(C)=O)c(F)cc2c1=O | 267 to 270 °C |
| Nc1ccc(-n2cnn(-c3ccc(OC(F)(F)F)cc3)c2=O)cc1 | 115 to 120 °C |

| SMILES | melting point |
| --- | --- |
| CC(=O)OCc1nc2sc(S(N)(=O)=O)cc2c(=O)n1-c1ccccc1Cl | 192 to 194 °C |
| NC(CC1c2ccccc2Oc2ccccc21)(C(=O)O)c1ccc(C(=O)O)c(O)c1 (centres undefined) | 191 to 194 °C |
| CN(C)C=Nc1nc(=O)n(S(=O)(=O)c2ccccc2)cc1F | 203 to 204 °C |
| Cc1ccc(C(=O)NCN2CCN(c3ncccc3C#N)CC2)cc1 | 134 to 136 °C |
| CN(C)CCN(C)C(=O)Oc1ccc(Cl)cc1Cn1nc(-c2ccc(C(F)(F)F)cc2)oc1=O | 127 to 129 °C |
| C=CCc1cccc2c(=O)c(C)c(C=Cc3ccccc3)oc12 | 126 °C |
| CCOCc1nc2c(N)nc3cc(Br)ccc3c2n1CC1CCOCC1 | 186 to 188 °C |
| CCn1cnc(S(=O)(=O)O)c1 | 278 °C |
| CC(C)c1nc(C(=O)NC2CC2)c(C(=O)O)o1 | 109 to 112 °C |
| O=C(O)CC[C@H](NC(=O)c1ccc(CCn2cnc3nccc-3c2O)cc1)C(=O)O | > 230 °C |
| Clc1ncc(OCc2ccccc2)c2ccccc12 | 97 to 98 °C |
| Clc1ccc(N=c2ssnc2Cl)cc1Cl | 89 to 90 °C |
| COc1cccc(-c2nc(-c3ccccc3C=O)n[nH]2)c1 | 163 to 165 °C |
| CC(C)C(=O)c1cnc(C(CC2CCCC2)c2ccc(S(C)(=O)=O)cc2)[nH]1 (centres undefined) | 171 to 172 °C |
| CCCC(=O)c1c(CC)nc2c(-c3ccc(Cl)cc3Cl)nccn12 | 159 to 160 °C |
| CC(=O)c1nc2cc(C(F)(F)F)c(Cl)cc2n1-c1ccc(CCNC(=O)NS(=O)(=O)c2ccc(C)cc2)cc1 | 225 °C |
| O=C1c2cc(Br)sc2SCCN1CCCCCl | 81 to 89 °C |
| OCc1ncccc1Cl | 42 to 44 °C |
| CCc1ccc(Cc2cn(C3OC(COC(=O)c4ccccc4)C(F)C(OC(=O)c4ccccc4)C3OC(=O)c3ccccc3)c3cccc(Cl)c23)cc1 (centres undefined) | 137 to 138 °C |
| Cc1c(O)ccc2c(C(F)(F)F)cc(=O)oc12 | 114 to 116 °C |
| CC1(C)N=C(c2ccccc2Cl)c2cc([N+](=O)[O-])ccc2N(CCO)C1=O | 192 to 194 °C |
| FC(F)(F)c1nc(-c2ccc(OCCCn3ccnc3)cc2)no1 | 73 to 73.5 °C |
| CCCC(=O)c1cnc2cc(CO)ccc2c1Nc1ccccc1C | 176 to 178 °C |
| CCCCC1=NC(Cl)(COC)CN1Cc1ccc(C(=O)O)cc1 (centres undefined) | 126 to 128 °C |
| Cc1ccc(C)n1N1C(=O)c2ccccc2C1=O | 182 to 184 °C |

| SMILES | melting point |
| --- | --- |
| COc1cc(-c2ccccc2C)cc2oc(=O)c(C)c(C)c12 | 145 °C |
| CCOC(=O)c1cnn(-c2ccccn2)c1N | 92 to 93 °C |
| O=C(O)CCOC(c1ccccc1)(c1ccccc1)c1ccccc1 | 159 to 161 °C |
| N#CSc1nc(I)ncc1Cl | 183 to 186 °C |
| CC(N)C(=O)Nc1cc(OCC(F)(F)F)ccc1-c1cccnc1 (centres undefined) | 135 to 140 °C |
| Nc1nc(Cl)c2ncn(C3C=CC(O)C3)c2n1 (centres undefined) | 160 to 162 °C |
| C1C2CC3CC1CC(C2)C3=C1C2CC3CC(C2)CC1C3 | 185 to 186 °C |
| COc1ccc(CCNC(=O)C(=O)NCc2ccc(NC(C)=O)cc2)cc1OC1CCCC1 | 235 to 236 °C |
| CCc1nc(COc2ccc(NC(=O)/C=C/c3cnn(C)c3-c3ccc(F)cc3)cc2)cs1 | 98 to 99 °C |
| C=CCN1CCN(C(=O)OC2C3=C(OCCS3)C(=O)N2c2ccc3ccc(Cl)nc3n2)CC1 (centres undefined) | 254 °C |
| Cc1nc2c(N)nc3ccccc3c2n1CC1(O)CCCCC1 | > 250 °C |
| COC(=O)c1ccc(-c2ccc(Cl)cc2)[nH]1 | 177 to 179 °C |
| COCCOc1ccc(C=O)c(OCc2ccccc2)c1 | 67.5 to 68 °C |
| CCOC(=O)c1c(C)nn2c(-c3cccnc3)ccnc12 | 145 to 146 °C |
| CC(=O)Nc1cccc(NC(C)=O)c1 | 190 to 191 °C |
| O=C1Nc2ccc(Cl)cc2Cc2sccc21 | 264 to 266 °C |
| CC1(C)OC(c2ccc(S(C)(=O)=O)cc2)=C(c2ccc(F)c(Cl)c2)C1=O | 162 to 164 °C |
| CCOC(=O)c1[nH]cnc1Cc1ccccc1 | 149 °C |
| O=C1NC(N2CCN(c3cnc(Cl)cn3)CC2)c2ccccc21 (centres undefined) | 263 to 266 °C |
| CC(C)(NC(=O)OCc1ccccc1)C(=O)NC(c1ccccc1)c1ccccc1 | 157 to 159 °C |
| O=[N+]([O-])c1cnccc1NCC(O)CO (centres undefined) | 131 to 135 °C |
| CC#CCOc1ccc(S(=O)(=O)NC(C(=O)NO)c2ccc(OCCN3CCOCC3)cc2)cc1 (centres undefined) | 80 to 86 °C |
| O=c1[nH]c(=O)n2c3c(cccc13)CC2 | 314 to 315 °C |
| NC(=O)c1occc1C(=O)NC1CCN(Cc2ccc3ccccc3c2)CC1 | 157 to 159 °C |
